From publication PMC12385147, “Discovery of Novel 2-Substituted Aniline Pyrimidine Based Derivatives as Potent Mer/c-Met Dual Inhibitors with Improvement Bioavailability” (Biomolecules, 2025)
Where two headings read alike, the source gives them in different places.

Assays:
[1] = test system: c-Met kinase phosphorylation; experiment: Western blot, c-Met phosphorylation in HCT116 cells; assay type: cell-based, human; conditions: 2.5 μM, 24 h, compared to the positive control
Experimental: (§1) Western blot assay was performed according to established protocols. HCT colon cancer cells were exposed to the specified concentration of compound 17c for 24 h, after which whole cell lysates were prepared using RAPI cell lysis buffer (Beyotime Institute of Biotechnology, Shanghai, China). Primary antibodies, purchased from Beyotime Institute of Biotechnology, were diluted at a ratio of 1:2000. The protein bands on polyvinylidene fluoride membranes were visualized and analyzed using Glyco Band-Scan Software Version 4.50. The antibody details are as follows:
Name: Phospho-c-Met (Tyr1234) antibody, Species: Rabit, Sequence: synthesized peptide derived from human c-Met around the Phosphorylation site of Tyr1234, Dilution: 1:2000, RRID number: AB_2834564, Catalogue number: AF3129, Supplier: Affinity Biosciences (Beijing, China).

c-Met kinase = target: T1, c-Met kinase (Homo sapiens, UniProt P08581); experiment: c-Met kinase inhibition assay (TK-Sub-Biotin / cryptate detection); assay type: biochemical; conditions: means from three independent experiments
T1 construct: purchased Invitrogen (Shanghai, China)

HepG2 = experiment: Antiproliferation CCK-8 assay, HepG2; assay type: cell-based; conditions: Homo sapiens, CCK-8, 72 h
Experimental: The HepG2, MDA-MB-231, and HCT116 cell lines were derived from our own laboratory (the laboratory of our collaborator, Dr. Xiaolei Zhou, at College of Food Science and Biology in Hebei University of Science and Technology). The antiproliferative activities were assessed using the CCK-8 assay. Cell viability was measured according to the manufacturer’s instructions for the Cell Counting Kit-8 (Meilunbio, Dalian, China). In this assay, 2.5 × 10^3 cells per well were seeded into 96-well plates.
After an initial 12 h incubation, cancer cells were exposed to varying concentrations of compound 17c for 72 h. Following CCK-8 solution addition and 2 h incubation, the absorbance at 450 nm was measured using a BioTek Synergy HTX microplate reader. Experiments included triplicate wells with three independent replicates. The IC50 values for compound 17c were derived from an analysis of the dose–response curves in GraphPad PRISM 9.5.

[2] = test system: Mer kinase phosphorylation; experiment: Western blot, Mer phosphorylation in HCT116 cells; assay type: cell-based, human; conditions: 2.5 μM, 24 h, compared to the positive control
Experimental: as §1
Name: Phospho-MER/TYRO3 (Tyr753/Tyr685) antibody, Species: Rabit, Sequence: synthesized peptide derived from human MER/TYRO3 around the Phosphorylation site of Tyr753/Tyr685, Dilution: 1:2000, RRID number: AB_2840500, Catalogue number: AF8443, Supplier: Affinity Biosciences (Beijing, China).

[3] = Plasma protein binding, equilibrium dialysis, human plasma; assay type: in vitro ADME; conditions: for fraction unbound at 6 h, 1 μM: human, plasma
PC-3 prostate cancer = experiment: Antiproliferation CCK-8 assay, PC-3; assay type: cell-based

T1 sequence (P08581 25-1390): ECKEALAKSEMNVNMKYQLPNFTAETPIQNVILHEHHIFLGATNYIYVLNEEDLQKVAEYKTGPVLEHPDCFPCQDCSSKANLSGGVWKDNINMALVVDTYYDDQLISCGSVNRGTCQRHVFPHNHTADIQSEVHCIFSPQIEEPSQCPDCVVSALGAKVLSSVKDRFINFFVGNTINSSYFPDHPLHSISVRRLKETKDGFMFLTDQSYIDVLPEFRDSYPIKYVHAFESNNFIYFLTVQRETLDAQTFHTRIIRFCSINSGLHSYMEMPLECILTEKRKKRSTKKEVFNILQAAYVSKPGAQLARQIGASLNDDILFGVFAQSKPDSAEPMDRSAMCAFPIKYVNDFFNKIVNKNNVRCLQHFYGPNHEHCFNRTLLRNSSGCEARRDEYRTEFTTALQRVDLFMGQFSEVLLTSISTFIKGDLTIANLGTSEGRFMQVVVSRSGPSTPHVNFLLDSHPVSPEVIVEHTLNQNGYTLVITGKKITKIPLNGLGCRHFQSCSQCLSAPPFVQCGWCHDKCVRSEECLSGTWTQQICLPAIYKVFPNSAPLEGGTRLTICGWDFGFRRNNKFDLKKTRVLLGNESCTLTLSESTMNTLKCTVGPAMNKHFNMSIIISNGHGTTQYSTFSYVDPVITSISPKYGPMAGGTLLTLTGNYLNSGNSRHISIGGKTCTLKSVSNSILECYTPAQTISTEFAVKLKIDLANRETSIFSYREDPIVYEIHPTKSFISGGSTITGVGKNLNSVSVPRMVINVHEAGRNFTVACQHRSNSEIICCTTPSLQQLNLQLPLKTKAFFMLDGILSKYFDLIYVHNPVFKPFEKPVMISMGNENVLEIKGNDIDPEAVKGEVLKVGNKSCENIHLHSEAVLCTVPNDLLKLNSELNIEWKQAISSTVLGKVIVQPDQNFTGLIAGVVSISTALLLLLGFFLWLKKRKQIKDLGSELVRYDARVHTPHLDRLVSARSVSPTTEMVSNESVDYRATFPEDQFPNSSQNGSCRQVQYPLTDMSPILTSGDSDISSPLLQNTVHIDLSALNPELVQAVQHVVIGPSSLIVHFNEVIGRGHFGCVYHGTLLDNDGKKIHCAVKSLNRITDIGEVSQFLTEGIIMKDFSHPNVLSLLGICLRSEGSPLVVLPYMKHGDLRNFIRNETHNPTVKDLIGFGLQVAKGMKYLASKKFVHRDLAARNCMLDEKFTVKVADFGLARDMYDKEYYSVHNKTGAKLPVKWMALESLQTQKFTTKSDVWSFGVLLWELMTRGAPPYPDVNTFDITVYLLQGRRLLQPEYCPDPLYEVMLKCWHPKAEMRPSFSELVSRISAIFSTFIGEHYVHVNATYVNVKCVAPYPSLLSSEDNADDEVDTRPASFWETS

Q: Which “inhibition of c-Met kinase phosphorylation” value [1] does the source give for `Cc1c(C(=O)Nc2ccc(Oc3ccnc(Nc4cccc(OC5CCN(C)CC5)c4)n3)cc2)c(=O)n(-c2ccccc2)n1C` [compound 17c, 1,5-dimethyl-N-(4-((2-((3-((1-methylpiperidin-4-yl)oxy)phenyl)amino)pyrimidin-4-yl)oxy)phenyl)-3-oxo-2-phenyl-2,3-dihydro-1H-pyrazole-4-carboxamide] here?
A: The value was “significantly inhibited the phosphorylation”.

Q: What about the IC50 (c-Met kinase) of the same molecule?
A: The IC50 was 26.1 ± 7.7 nM.

Q: What about the IC50 (HepG2) of the same molecule?
A: Its IC50 is 460 ± 60 nM.

Q: And the “inhibition of Mer kinase phosphorylation” value [2]?
A: The value was “significantly inhibited the phosphorylation”.

Q: What about the “Stability (%)” value ([3]; human plasma, 1 μM, 6 h at 37 °C) of the same molecule?
A: The value was 99.3%.

Q: What about the fraction unbound at 6 h, 1 μM ([3]; human plasma, 1 μM, fraction, read-out: Mean Fu) of the same molecule?
A: The fraction unbound at 6 h, 1 μM was 0.0158.

Q: And the fraction unbound at 6 h, 1 μM ([3]; human plasma, 1 μM, read-out: Mean Fb (PPB) (converted))?
A: The fraction unbound at 6 h, 1 μM was 0.016.

Q: What about the plasma protein-binding affinity ([3]; species not stated (abstract)) of the same molecule?
A: Its plasma protein-binding affinity is > 95%.

Q: And the IC50 (PC-3 prostate cancer; Homo sapiens, PC-3, CCK-8, read-out: IC50 PC-3 cells)?
A: Its IC50 is 3.79 ± 1.09 µM.

Q: What about the “times more effective than cabozantinib” value (PC-3 prostate cancer; PC-3 cells) of the same molecule?
A: The value was 4.1 times.
